Data on four compounds can be found in PMC10786919, “Design-rules for stapled peptides with in vivo activity and their application to Mdm2/X antagonists” (Nature Communications, 2024).

Data set [1] relates to p53 responsive β-lactamase reporter in HCT116 cells. The data set can be described thus: cells. The class given is cell-based. The method in brief: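 HCT116 cells stably carrying a p53-responsive β-lactamase reporter, seeded at 8000 cells/well, with 0.5% DMSO final. Reporter activity read by ToxBLAzer Dual Screen. Values are geometric means of at least three biological replicates.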

Data set [2] addresses T1, human Mdm2 1–125 (Homo sapiens, UniProt Q00987).
T1 construct: GST (N); His6 (internal); TEV cleavage site (ENLYFQG) (internal); made in house; host or cells: BL21 (DE3) Rosetta T1R Escherichia coli
The data set is described as follows: Mdm2 binding by competitive fluorescence anisotropy assay (FP binding). Particulars: read-out: FP binding assay KD. From the text:
The TEV (tobacco etch virus) cleavage site was changed from ENLYFQS to ENLYFQG to give a fusion protein with the following sequence:
[P] is the protein concentration (Mdm2), [L] is the labeled peptide concentration, r is the anisotropy measured, r0 is the anisotropy of the free peptide, rb is the anisotropy of the Mdm2–FAM-labeled peptide complex, Kd is the dissociation constant, [L]t is the total FAM labeled peptide concentration, and [P]t is the total Mdm2 concentration. […] This value was then used to determine apparent Kd values of the respective competing ligands in subsequent competition assays in fluorescence anisotropy experiments.
The competing molecules were then titrated against the complex of the FAM-labeled peptide and protein. Apparent Kd values were determined by fitting the experimental data to equations shown below:2 r=ro+(rb−ro)×2(d^2−3e)cos(θ/3)−9/3Kd1+2(d^2−3e)cos(θ/3)−d 3 d=Kd1+Kd2+[L]st+[L]t−Pt 4 e=Lt−PtKd1+Lst+PtKd2+Kd1Kd2 5 f=−Kd1Kd2[P]t 6 θ=arcos−2d^3+9de−27f/2(d^2−3e)^3
[L]st and [L]t denote labeled ligand and total unlabeled ligand input concentrations, respectively. Kd2 is the dissociation constant of the interaction between the unlabeled ligand and the protein. In all competition experiments, it is assumed that [P]t > [L]st, otherwise considerable amounts of free labeled ligand would always be present and would interfere with measurements. […] The FAM-labeled peptide was dissolved in dimethyl sulfoxide (DMSO) at 1 mM and diluted into experimental buffer. Readings were carried out with an Envision Multilabel Reader (PerkinElmer). […] Curve-fitting was carried out using Prism 4.0 (GraphPad). […] Negative control titrations of the ligands under investigation were also carried out with the fluorescently labeled peptide (in the absence of Mdm2) to ensure no interactions were occurring between the ligands and the FAM-labeled peptide. […] Measurements were taken a minimum of three times (biological replicates) and values are reported as geometric means of the replicates.
For orientation: In fluorescence polarisation assays a small probe gives low polarisation when free and higher when bound to something large.

The nature of data set [3]: Solubility assay (kinetic solubility, PBS pH 7). The class given is physicochemical. To be noted: pH 7, PBS; for solubility kinetic: pH 7, aqueous buffer, kinetic from dmso stock, read-out: Solubility. The method in brief:
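Quantitation uses an external standard at 100 µM, prepared from 10 mM stock in acetonitrile:methanol:DMSO (10:80:10). Solubility (µM) = (peak area of sample ÷ peak area of standard) × standard concentration.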

Data set [4] in a line: Lactate dehydrogenase (LDH) release assay. The data set is classed as cell-based. The method in brief: (§1)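 Geometric means of at least three independent biological runs are given for LDH release measured in HCT116 cells stably expressing a p53-driven β-lactamase reporter. Plating density was 8000 cells/well; DMSO in wells was 0.5%.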
In data set [5] the test system is Jump-In T-REx CHO-K1 BLA cells. The data set can be described thus: cells. To be noted: for pEC50: read-out: TETCHO: Counterscreen EC50. The class given is cell-based. On the technique in general: The purpose of a counterscreen is to sort out artefacts and off-target activity.
Data set [6] is described as follows: Experimental LogD (partition coefficient). To be noted: for logD: not stated, Partition Coeff LogD.
Data set [7] has as its system cells transiently transfected with the NanoLuc-HaloTag vector. The data set can be described thus: Nanoclick permeability assay. Particulars: 4Hr. The method in brief: (§2)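 Azido-peptide permeability was read as loss of NanoBRET signal (donor 450 nm, acceptor 610 nm) after adding NanoBret618-azide at 10 μM final.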
Data set [8] can be described thus: in vitro. To be noted: Nanoclick permeability assay EC50. The method in brief:
as §2

The nature of data set [9]: Circular dichroism (CD) helicity. The class given is physicochemical. As to the method: A total of 5 µL of the 10 mM stock peptide was mixed with 45 µL of 100% methanol, and dried for 2 h in the SpeedVac concentrator (Thermo Scientific). The dried peptide was reconstituted in a buffer (1 mM Hepes pH 7.4 and 5% methanol) to a concentration of 1 mM. The peptide sample was placed in a quartz cuvette with a path length of 0.2 cm. The peptide concentration was determined by the absorbance of the peptide at […]. The CD spectrum was recorded from 300 to 190 nm using the Chirascan-plus qCD machine (Applied Photophysics, Surrey, UK), at 25 °C. All experiments were done in duplicates. The CD spectrum was converted to mean residue ellipticity before deconvolution and estimation of the secondary structure components of the peptide using the CDNN software (distributed by Applied Photophysics). Measurements were taken at least twice and were reported as arithmetic means.

Data set [10] deals with HCT116 cells. The data set is described as follows: Lactate dehydrogenase (LDH) release assay. The class given is cell-based. An outline of the steps: as §1
The nature of data set [11]: EPSA. The data set is classed as physicochemical. Particulars: EPSA.
[12] abbreviates: 0% FBS 4Hr, read-out: p53 reporter assay EC50.
The mark [13] stands for this setting: 0% FBS 4Hr, read-out: p53 reporter assay: EC50.
Where [14] appears, read: 10% FBS 4Hr, read-out: p53 reporter assay: EC50.
Where [15] appears, read: 10% FBS 16Hr, read-out: p53 reporter assay: EC50.

pEC50, pKd: −log10 of the molar value. In brackets after ≈: the same amount, converted by molar mass. Read-outs that look alike come from different tables or passages of the source. Positions of bridges follow the written chain, without caps; N, C: chain ends. Non-standard residues stand in square brackets, D forms with d. Residues, ends and D or L forms follow the SMILES beside them. Lys(N3) = [N-]=[N+]=NCCCC[C@H](N)C(=O)O; R8 = C=CCCCCCC[C@@](C)(N)C(=O)O; Cba = N[C@@H](CC1CCC1)C(=O)O; S5 = C=CCCC[C@](C)(N)C(=O)O; βAla = NCCC(=O)O

What is called pEC50 is the EC50 on a negative log10 scale, so that one unit is a factor of ten. One may read the pKd as the negative decadic logarithm of the Kd, by convention in mol/L. What is called logD is lipophilicity at a set pH, counting ionised and neutral species. Low readings indicate lower lipophilicity, high ones higher lipophilicity.

T1 sequence (Q00987 with tags, fused parts or gaps): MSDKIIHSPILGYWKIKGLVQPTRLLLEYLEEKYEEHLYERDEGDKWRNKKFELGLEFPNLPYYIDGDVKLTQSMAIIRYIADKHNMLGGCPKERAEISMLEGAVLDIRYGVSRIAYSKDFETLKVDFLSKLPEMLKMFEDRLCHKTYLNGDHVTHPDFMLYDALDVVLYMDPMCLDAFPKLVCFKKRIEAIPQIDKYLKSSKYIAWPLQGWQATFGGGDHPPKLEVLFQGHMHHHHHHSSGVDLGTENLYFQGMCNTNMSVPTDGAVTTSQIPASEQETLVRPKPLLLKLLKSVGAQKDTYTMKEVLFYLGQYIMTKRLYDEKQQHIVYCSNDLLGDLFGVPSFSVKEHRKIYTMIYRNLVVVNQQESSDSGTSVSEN

As to `CC(C)C[C@H](NC(=O)CCNC(=O)[C@H](CCCCN=[N+]=[N-])NC(=O)CNC(=O)[C@H](CC(=O)O)NC(=O)[C@H](CC(C)C)NC(=O)[C@H](CCCCN)NC(=O)[C@@H](NC(=O)[C@H](CCCNC(=N)N)NC(=O)[C@H](CCCCN)NC(=O)[C@H](C)NC(=O)[C@H](C)NC(=O)[C@@H]1CCCN1)C(C)C)C(=O)N[C@H](C(=O)N[C@@H](Cc1ccccc1)C(=O)N[C@]1(C)CCCCCCC=CCCC[C@@](C)(C(=O)N[C@@H](CO)C(=O)N[C@@H](C)C(=O)N[C@@H](C)C(N)=O)NC(=O)[C@H](CC2CCC2)NC(=O)[C@H](CCC(N)=O)NC(=O)[C@H](C)NC(=O)[C@H](Cc2c[nH]c3ccccc23)NC(=O)[C@H](Cc2ccc(O)cc2)NC(=O)[C@H](CCC(=O)O)NC1=O)[C@@H](C)O` [MP-879] (H-PAAKRVKLDG[Lys(N3)][βAla]LTF[R8]EYWAQ[Cba][S5]SAA-NH2; staple 16-23), the negative-log EC50 (pEC50) in data set [1] (setting [12]) is 5.62; in [1] (0% FBS 16Hr, read-out: p53 reporter assay EC50), 5.94; in data set [4] (LDH: Cytotoxicity assay EC50), < 4.30; in data set [5] (0% FBS 4Hr), 4.45; in data set [5] (0% FBS 16Hr) it was < 4.30. Moreover, the pKd in data set [2] is 7.41. The solubility kinetic in data set [3] stood at 162 µM (≈ 480 µg/mL). In addition, the results for the “TETCHO: Counterscreen % Effect” value in data set [5] (0% FBS 4Hr) and in data set [5] (0% FBS 16Hr) were 42.86% and 28.78%, respectively. Moreover, in data set [6], the logD came to 2.38. Moreover, the “Nanoclick permeability assay % Effect” value in data set [7] amounted to 134.8%. Also, the cell entry EC50 in data set [8] turned out to be 0.555 µM.
On to `CC(=O)N[C@@H](CC(C)C)C(=O)N[C@H](C(=O)N[C@@H](Cc1ccccc1)C(=O)N[C@]1(C)CCCCCCC=CCCC[C@@](C)(C(=O)N[C@@H](C)C(=O)N[C@@H](C)C(=O)N[C@@H](C)C(=O)N[C@@H](C)C(=O)N[C@@H](C)C(=O)N[C@@H](C)C(N)=O)NC(=O)[C@H](CC(C)C)NC(=O)[C@H](CCC(N)=O)NC(=O)[C@H](C)NC(=O)[C@H](Cc2c[nH]c3ccccc23)NC(=O)[C@H](Cc2ccc(O)cc2)NC(=O)[C@H](CCC(=O)O)NC1=O)[C@@H](C)O` [MP-688] (Ac-LTF[R8]EYWAQL[S5]AAAAAA-NH2; staple 4-11), for which the negative logarithm of the EC50 (pEC50) was 6.80 in data set [1] (setting [12]); 5.87 in [1] (10% FBS 16Hr, read-out: p53 reporter assay EC50); 6.80 in data set [1] (read-out: Cell EC50 (4 hr, 0% FBS), p53 reporter assay, 4 hr, 0% FBS); 5.89 in [1] (read-out: Cell EC50 (16 hr, 10% FBS), p53 reporter assay, 16 hr, 10% FBS); < 4.29 in data set [4] (0% FBS 4Hr, read-out: LDH: Cytotoxicity assay EC50); < 4.29 in data set [4] (10% FBS 16Hr, read-out: LDH: Cytotoxicity assay EC50). Also, the pEC50 in data set [5] (0% FBS 4Hr) and in data set [5] (10% FBS 16Hr) was < 4.30 throughout. Moreover, the “CD % Helicity” value in data set [9] is 49.8%. In [9] (circular dichroism), this compound returned an Aqueous solution helicity of 49.8%.
As for `CC(=O)N[C@@H](CCCCN)C(=O)NCCCCCC(=O)N[C@H](C(=O)N[C@@H](CO)C(=O)N[C@@H](Cc1ccccc1)C(=O)N[C@]1(C)CCCCCCC=CCCC[C@@](C)(C(N)=O)NC(=O)[C@H](CC(C)C)NC(=O)[C@H](CC(C)C)NC(=O)[C@H](C)NC(=O)[C@H](Cc2c[nH]c3ccccc23)NC(=O)[C@H](Cc2ccc(O)cc2)NC(=O)[C@H](CCC(=O)O)NC1=O)[C@@H](C)O` [MP-716], the “p53 reporter assay: % Effect” value is given as 93.75% in [1] (0% FBS 4Hr), 161.5% in [1] (10% FBS 4Hr) and 18.31% in data set [1] (10% FBS 16Hr). For the same compound, the pEC50 in [1] (setting [13]) is 4.85; in [1] (setting [14]), 4.80; in data set [1] (setting [15]), < 4.30; in [4] (LDH: Cytotoxicity assay: EC50), < 4.29; in [5] (0% FBS 4Hr), < 4.30; in data set [5] (10% FBS 4Hr), < 4.30. Moreover, the pEC50 in data set [5] (10% FBS 16Hr) is < 4.30. In [2], the pKd is 7.96. The Solubility entry in [3] is on record as “Poorly Behaved”. In addition, the “TETCHO: Counterscreen % Effect” value in data set [5] (0% FBS 4Hr) came out at 43.21%; in data set [5] (10% FBS 4Hr), 45.82%; in [5] (10% FBS 16Hr) it was 13.83%. For the same compound, in data set [6], the “Partition Coeff LogD” value is on record as “Poorly Behaved”. Also, the “Nanoclick permeability assay % Effect” value in data set [7] was found to be 9.756%. The cell entry EC50 in [8] was > 10 µM.
Consider `CC(=O)N[C@H](C(=O)N[C@@H](CO)C(=O)N[C@@H](Cc1ccccc1)C(=O)N[C@]1(C)CCCCCCC=CCCC[C@@](C)(C(N)=O)NC(=O)[C@H](CC(C)C)NC(=O)[C@H](CC(C)C)NC(=O)[C@H](C)NC(=O)[C@H](Cc2c[nH]c3ccccc23)NC(=O)[C@H](Cc2ccc(O)cc2)NC(=O)[C@H](CCC(=O)O)NC1=O)[C@@H](C)O` [MP-090], for which the figures for the “p53 reporter assay: % Effect” value in data set [1] (0% FBS 4Hr), in [1] (10% FBS 4Hr) and in data set [1] (10% FBS 16Hr) were 110.7%, 88.51% and 4.432%, respectively. Moreover, the pEC50 was 5.19 in data set [1] (setting [13]); 4.58 in data set [1] (setting [14]); < 4.30 in data set [1] (setting [15]); < 4.29 in data set [4] (LDH: Cytotoxicity assay: EC50); 4.30 in data set [10]; 4.67 in data set [5] (0% FBS 4Hr). For the same compound, the values for the pEC50 in data set [5] (10% FBS 4Hr) and in data set [5] (10% FBS 16Hr) were 4.50 and 4.48, respectively. The solubility kinetic in data set [3] is 77 µM (≈ 113 µg/mL). Moreover, the “TETCHO: Counterscreen % Effect” value in data set [5] (0% FBS 4Hr) stood at 137.4%; in [5] (10% FBS 4Hr) it was 106.1%; in data set [5] (10% FBS 16Hr), 108.5%. In data set [6], this compound gave a logD of 2.69. For the same compound, the “Nanoclick permeability assay % Effect” value in data set [7] is 42.09%. In data set [8], the cell entry EC50 is > 10 µM. Moreover, the EPSA in [11] turned out to be 201 A^2.
